Laboratory results: patent publication US20170050957A1, “4-AMINO-6-(HETEROCYCLIC)PICOLINATES AND 6-AMINO-2-(HETEROCYCLIC)PYRIMIDINE-4-CARBOXYLATES AND THEIR USE AS HERBICIDES” (Dow AgroSciences LLC, priority 2013, published 2017)
Where two headings read alike, the source gives them in different places.

Assays:
[1] = test system: Key Grass and Sedge Weeds as well as Grass Crops; experiment: Post-emergent Test II herbicidal activity (Table 16); format: in vivo; details: post-emergence, 336 h, 14 d; for pest or weed control at 35 g/ha: 35 g ai/ha; for pest or weed control at 70 g/ha: 70 g ai/ha; for pest or weed control at 140 g/ha: 140 g ai/ha
Procedure, shortened: (§1)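 Plants at first-second true leaf stage, grown 7-21 d in greenhouse (~15 h photoperiod, 23-29 °C day), were track-sprayed at 187 L/ha with compound in acetone/DMSO/water/isopropanol/crop oil/Triton X-155 at a high rate plus 1/2× to 1/16× dilutions. Injury scored visually after 14 d versus untreated plants, 0 (none) to 100% (complete kill).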

[2] = test system: Key Broadleaf Weed and Crop Species; experiment: Post-emergent Test II herbicidal activity (Table 15); format: in vivo; details: post-emergence, 336 h, 14 d; for pest or weed control at 35 g/ha: 35 g ai/ha; for pest or weed control at 70 g/ha: 70 g ai/ha; for pest or weed control at 140 g/ha: 140 g ai/ha
Procedure, shortened: as §1

[3] = Cyperus esculentus, yellow nutsedge (Cyperus esculentus), read-out: Visual Growth Reduction (%) 14 Days After Application, CYPES
[4] = Echinochloa crus-galli, barnyardgrass (Echinochloa crus-galli), read-out: Visual Growth Reduction (%) 14 Days After Application, ECHCG
[5] = Oryza sativa, rice (Oryza sativa), read-out: Visual Growth Reduction (%) 14 Days After Application, ORYSA
[6] = Setaria faberi, giant foxtail (Setaria faberi), read-out: Visual Growth Reduction (%) 14 Days After Application, SETFA
[7] = Triticum aestivum, wheat, spring (Triticum aestivum), read-out: Visual Growth Reduction (%) 14 Days After Application, TRZAS
[8] = Zea mays, maize, corn (Zea mays), read-out: Visual Growth Reduction (%) 14 Days After Application, ZEAMX
[9] = Abutilon theophrasti, velvetleaf (Abutilon theophrasti), read-out: Visual Growth Reduction (%) 14 Days After Application, ABUTH
[10] = Amaranthus retroflexus, redroot pigweed (Amaranthus retroflexus), read-out: Visual Growth Reduction (%) 14 Days After Application, AMARE
[11] = Brassica napus, oilseed rape, canola (Brassica napus), read-out: Visual Growth Reduction (%) 14 Days After Application, BRSNN
[12] = Chenopodium album, lambsquarters (Chenopodium album), read-out: Visual Growth Reduction (%) 14 Days After Application, CHEAL
[13] = Euphorbia heterophylla, wild poinsettia (Euphorbia heterophylla), read-out: Visual Growth Reduction (%) 14 Days After Application, EPHHL
[14] = Helianthus annuus, sunflower (Helianthus annuus), read-out: Visual Growth Reduction (%) 14 Days After Application, HELAN

Row | Structure (SMILES) | pest or weed control at 35 g/ha [1, 3] | pest or weed control at 70 g/ha [1, 3] | pest or weed control at 140 g/ha [1, 3] | pest or weed control at 35 g/ha [1, 4] | pest or weed control at 70 g/ha [1, 4] | pest or weed control at 140 g/ha [1, 4] | pest or weed control at 35 g/ha [1, 5] | pest or weed control at 70 g/ha [1, 5] | pest or weed control at 140 g/ha [1, 5] | pest or weed control at 35 g/ha [1, 6] | pest or weed control at 70 g/ha [1, 6] | pest or weed control at 140 g/ha [1, 6] | pest or weed control at 35 g/ha [1, 7] | pest or weed control at 70 g/ha [1, 7] | pest or weed control at 140 g/ha [1, 7] | pest or weed control at 35 g/ha [1, 8] | pest or weed control at 70 g/ha [1, 8] | pest or weed control at 140 g/ha [1, 8] | pest or weed control at 35 g/ha [2, 9] | pest or weed control at 70 g/ha [2, 9] | also measured
1 | COC(=O)c1nc(-c2ccc(Cl)c3[nH]ccc23)nc(N)c1OC [Compound 1.45] | 0 to 29% | 0 to 29% | 0 to 29% | 0 to 29% | 0 to 29% | 0 to 29% | 0 to 29% | 0 to 29% | 0 to 29% | 0 to 29% | 0 to 29% | 0 to 29% | 0 to 29% | 0 to 29% | 0 to 29% | 0 to 29% | 0 to 29% | 0 to 29% | 0 to 29% | 0 to 29% | pest or weed control at 140 g/ha [2, 9]: 0 to 29%; pest or weed control at 35 g/ha [2, 10]: 0 to 29%; pest or weed control at 70 g/ha [2, 10]: 0 to 29%; pest or weed control at 140 g/ha [2, 10]: 45 to 59%; pest or weed control at 35 g/ha [2, 11]: 0 to 29%; pest or weed control at 70 g/ha [2, 11]: 0 to 29%; pest or weed control at 140 g/ha [2, 11]: 0 to 29%; pest or weed control at 35 g/ha [2, 12]: 0 to 29%; pest or weed control at 70 g/ha [2, 12]: 0 to 29%; pest or weed control at 140 g/ha [2, 12]: 0 to 29%; pest or weed control at 35 g/ha [2, 13]: 0 to 29%; pest or weed control at 70 g/ha [2, 13]: 0 to 29%; pest or weed control at 140 g/ha [2, 13]: 0 to 29%; pest or weed control at 35 g/ha [2, 14]: 0 to 29%; pest or weed control at 70 g/ha [2, 14]: 0 to 29%; pest or weed control at 140 g/ha [2, 14]: 30 to 44%; melting point: 226 °C
2 | COC(=O)c1nc(-c2cccc3cc[nH]c23)c(F)c(N)c1Cl [Compound 1.47] | 0 to 29% | 0 to 29% | 0 to 29% | 0 to 29% | 0 to 29% | 0 to 29% | 0 to 29% | 0 to 29% | 0 to 29% | 0 to 29% | 0 to 29% | 0 to 29% | 0 to 29% | 0 to 29% | 0 to 29% | 0 to 29% | 0 to 29% | 0 to 29% | 0 to 29% | 0 to 29% | pest or weed control at 140 g/ha [2, 9]: 0 to 29%; pest or weed control at 35 g/ha [2, 10]: 0 to 29%; pest or weed control at 70 g/ha [2, 10]: 0 to 29%; pest or weed control at 140 g/ha [2, 10]: 30 to 44%; pest or weed control at 35 g/ha [2, 11]: 0 to 29%; pest or weed control at 70 g/ha [2, 11]: 0 to 29%; pest or weed control at 140 g/ha [2, 11]: 0 to 29%; pest or weed control at 35 g/ha [2, 12]: 75 to 84%; pest or weed control at 70 g/ha [2, 12]: 75 to 84%; pest or weed control at 140 g/ha [2, 12]: 85 to 94%; pest or weed control at 35 g/ha [2, 13]: 0 to 29%; pest or weed control at 70 g/ha [2, 13]: 0 to 29%; pest or weed control at 140 g/ha [2, 13]: 0 to 29%; pest or weed control at 35 g/ha [2, 14]: 0 to 29%; pest or weed control at 70 g/ha [2, 14]: 0 to 29%; pest or weed control at 140 g/ha [2, 14]: 45 to 59%; melting point: 96 to 100 °C
